What was measured:
HepG2 cells [1] = experiment: Intracellular RONS detection with DHE fluorescent probe; format: cell-based, human; conditions: IC50 concentration
Procedure: Two different fluorescent dyes, i.e., 2,7-dichlorodihydrofluorescein diacetate (DCFH-DA, Cayman Chemicals Company, Ann Arbor, MI) and dihydroethidium (DHE, Sigma-Aldrich, St. Louis, MO) were utilized for the determination of intracellular levels of RONS after 1, 4, and 24 h of incubation with tested oxime reactivators or TBHP (positive control). Cells incubated with oxime-free DMEM represented untreated control. After the incubation, the experimental medium was removed and replaced with a solution of DCFH-DA or DHE at concentrations of 20 and 5 μmol/L, respectively. The cells were subsequently incubated at 37 °C in a CO2 incubator for 45 min. Afterward, the fluorescence intensity of each well was measured using a Spark multimode microplate reader at an excitation wavelength of 485 nm for DCFH-DA or 528 nm for the DHE probe and an emission wavelength of 535 or 590 nm, respectively. Each experiment was carried out in triplicate and repeated three independent times.
The toxicological indices IC50 were calculated from control-subtracted triplicates using nonlinear regression (four parameters) using GraphPad Prism 9 software version 9.3.0 (GraphPad Software Inc., San Diego, CA). One-way analysis of variance (ANOVA) followed by Dunnetʼs multiple comparison test was used for RONS, MDA, NP-SH, and NP-SS-NP statistical analysis by GraphPad Prism 9 software, version 9.3.0. Data are expressed as means ± standard deviation (SD) of three independent measurements (n = 3). Significant differences between oxime-treated and untreated control groups (p ≤ 0.05) were marked by an asterisk (*).

AChE = conditions: in rat blood; read-out: IC50 (concentration required to inhibit AChE activity by 50%); cited from earlier work
HepG2 cells [2] = experiment: Flow cytometric detection of cell death (Annexin V & Dead Cell Assay); format: cell-based, human; conditions: IC50 concentration
Description: 2. Flow cytometric detection of cell death
The microcapillary flow cytometry (Muse™ Cell Analyzer, Luminex, Austin, TX) was used to determine cell death.
This method is based on detecting externalization of phosphatidylserine on the surface of cells undergoing apoptosis.
The technique allows quantitative analysis of non-apoptotic, early apoptotic, late apoptotic, and necrotic cells. The reagent mixture also contains the membrane non-permeable dye 7-aminoactinomycin D. This component distinguishes necrotic and late apoptotic cells from the live and early apoptotic cells. The measurement of cell death was carried out according to manufacturer instructions after 1, 4, and 24 h incubation with tested oxime reactivators and with oxime-free medium as an untreated control. During the first day of the experiment, cells were seeded into a 24-well plate (TPP) with a density of […]. After the incubation, cells from each well were collected into the polystyrene tube (TPP) and centrifuged for 5 min at 1000 × g at room temperature. The supernatant was discarded. The cell suspensions […]
were prepared in fresh medium DMEM. Afterward 100 μL of cell suspension were mixed with the 100 μL of Muse™ Annexin V & Dead Cell Assay reagent, and the samples were incubated for 20 min at room temperature in the dark.
Per measurement, 5000 cells were analyzed. Each experiment was performed in triplicates and repeated three independent times. The concentration of K048, K074, K075, and K203 oximes and TBHP (positive control) used in […]
After 1 h of incubation (Figure S-1.) with tested oxime reactivators and TBHP as the positive control, the percentage […]
A significant change in the percentage of
The amount of early apoptotic cells
. On the other hand, the percentage of late apoptotic cells was […]
control cells. The count of late apoptotic cells enlarged by 7.74, 4.71 , 4.17, 4.13, and 3.20 %, respectively. The statistical differences were also found in the percentage of necrotic cells in this time interval. The highest increment […]
K048, K074, K075, and K203 groups when compared with control.
K075, and K203 treated groups, respectively, when compared with control. Finally, the percentage of necrotic cells […]
Fig. S-1 The percentage of intact (white column), early (light grey column), late apoptotic (dark grey column), and necrotic HepG2 cells (black column) determined using microcapillary flow cytometry after 1 h, 4 h and 24 h treatment with oxime acetylcholinesterase reactivators or TBHP (positive control). Control represents the cells incubated with an oxime-free culture medium. One-way analysis of variance (ANOVA) followed by Dunnetʼs multiple comparison test was used for statistical analysis by GraphPad Prism 9 software version 9.3.0. Data are expressed as means ± standard deviation (SD) of three independent measurements (n = 3). Significant differences between oxime-treated and untreated control groups (p ≤ 0.05) and marked by asterisk (*).
3. Stability of oximes in DMEM medium at 37 °C over 24 hours
The stability of oximes K048, K074, K075, and K203 in DMEM medium, with concentrations corresponding to their […]
UV, following the chromatographic conditions described by Vanova et al. (2021)13. The results over the tested time […]
Fig. S-2 Data are expressed in percentage as means ± standard deviation (SD) of three independent measurements […]

SMILES	increase of RONS (DHE probe) vs negative control (HepG2 cells [1]; 4 h incubation)	IC50 (AChE)	decrease in percentage of intact (live) cells vs control (HepG2 cells [2]; 1 h)	increase in early apoptotic cells vs control (HepG2 cells [2]; 1 h)	increase in late apoptotic cells vs control (HepG2 cells [2]; 1 h)	decrease in percentage of live cells vs control (HepG2 cells [2]; 4 h)	increase in early apoptotic cells vs control (HepG2 cells [2]; 4 h)	increase in late apoptotic cells vs control (HepG2 cells [2]; 4 h)	increase in necrotic cell population vs control (HepG2 cells [2]; 4 h)	decrease in percentage of intact cells vs control (HepG2 cells [2]; 24 h)	increase in early apoptotic cells vs control (HepG2 cells [2]; 24 h)	increase in late apoptotic cells vs control (HepG2 cells [2]; 24 h)	increase of RONS (DHE probe) vs negative control (HepG2 cells [1]; 24 h incubation)	increase in necrotic cells vs control (HepG2 cells [2]; 1 h)
NC(=O)c1cc[n+](CCCC[n+]2ccc(C=NO)cc2)cc1.[Br-].[Br-] [K048, 4-carbamoyl-1-(4-(4-((hydroxyimino)methyl)pyridin-1-ium-1-yl)butyl)pyridin-1-ium dibromide]	25.8%	~643 µM	~9.71%	about 5.05%	4.17%	11.2%	5.72%	4.35%	1.17%	45.6%	18.2%	26.2%		
O/N=C/c1cc[n+](CCCC[n+]2ccc(/C=N/O)cc2)cc1 [K074, 1,1′-(butane-1,4-diyl)bis(4((hydroxyimino)methyl)pyridine-1-ium) dibromide]	33.4%	~66 µM	~8.85%	~2.45%	4.71%	8.3%	4.17%	3.47%	0.67%	45.5%	14.1%	31.3%	42.8%	1.69%

From article PMC10731658 (Chemical Research in Toxicology, 2023)
